Measurements as given in ChEMBL document CHEMBL1156808, “Synthesis and characterization of iodinated tetrahydroquinolines targeting the G protein-coupled estrogen receptor GPR30” (J Med Chem, 2010).

Test system: Muscle tissue
Assay: Biodistribution in muscle of iv dosed NCr nu/nu mouse xenografted with GPR30 overexpressing human Hec50 cells after 2 hrs
Assay type: ADME, organism-based
Settings: in vivo

For `O=C(NCCc1ccc2c(c1)[C@@H]1C=CC[C@@H]1[C@H](c1cc3c(cc1Br)OCO3)N2)Nc1cccc([125I])c1`, the Drug uptake was 0.52 % ID/g.
